{"source": "patent US9376424B2", "about": "“Methods for treating post traumatic stress disorder” (AZEVAN PHARMACEUTICALS, INC., priority 2010, dated 2016)", "key": {"V1b receptor": {"molecular_target": "T1, V1b receptor (Homo sapiens, UniProt P47901)", "T1 construct": "expressed in transfected cells; host or cells: CHO-K1 (ATCC), vector PCI-neo", "T1 sequence (P47901 1-424)": "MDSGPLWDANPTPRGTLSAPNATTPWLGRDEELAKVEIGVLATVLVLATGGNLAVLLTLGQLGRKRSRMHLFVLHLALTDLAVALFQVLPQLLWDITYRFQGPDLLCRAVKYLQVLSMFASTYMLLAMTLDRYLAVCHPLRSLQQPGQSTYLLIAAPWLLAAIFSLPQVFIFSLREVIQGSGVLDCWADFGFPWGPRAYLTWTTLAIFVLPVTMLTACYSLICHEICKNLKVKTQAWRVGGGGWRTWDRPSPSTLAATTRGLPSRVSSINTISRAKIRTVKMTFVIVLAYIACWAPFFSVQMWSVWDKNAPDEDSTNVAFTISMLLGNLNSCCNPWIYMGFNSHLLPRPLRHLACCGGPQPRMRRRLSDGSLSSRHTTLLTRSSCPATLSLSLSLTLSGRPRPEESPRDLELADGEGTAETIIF", "assay": "Human or rat vasopressin V1b cell-based receptor binding assay", "conditions": "selectivity table; read-out: inhibition data (Ki, nM), Receptor V1b", "description": "Human vasopression V1b receptor-expressing cells. Human vasopressin receptor 1b (hV1b) cDNA (see, Lolait et al., “Extrapituitary expression of the rat V1b vasopressin receptor gene” Proc. Natl. Acad. Sci. USA. 92:6783-7 (1995); de Keyzer et al., “Cloning and characterization of the human V3(V1b) pituitary vasopressin receptor” FEBS Lett. 356:215-20 (1994); Sugimoto et al., “Molecular cloning and functional expression of a cDNA encoding the human V1b vasopressin receptor” J. Biol. Chem. 269:27088-92 (1994)) was inserted into a mammalian cell expression vector PCI-neo (Promega) at EcoR1 site. The recombinant plasmid carrying hV1b cDNA was identified from transformed E. Coli clones and used for the transfection of Chinese hamster ovary cell (CHO-K1, ATCC). Two micrograms of hV1b receptor DNA was introduced into 10^5 CHO cells cultured in 6-well plate, using Fugene-6 mediated transfection technique (Boehringer Mannheim). Twenty-four hrs post transfection, Cells were then cultured under selection of G-418 (0.25 mg/ml) supplemented to the culture medium. Three days later, limited dilution was carried out to obtain single cell clones in 96-well plates. […]\nHuman or rat vasopression V1b cell-based receptor binding assay. […] Samples were counted in a liquid scintillation counter (Beckman LS3801). IC50 and Ki values were calculated using Prism Curve fitting software. […]"}, "resident male rats": {"test_system": "resident male rats", "assay": "Resident-Intruder Model of Stress and Aggression in Rats (neuroimaging)", "format": "in vivo, rat", "description": "Resident-Intruder Model of Stress and Aggression in Rats. Neuroimaging is used to assess the blockade of stress/arousal with test compound compared to control. The effect of AVN251-HCl on functional circuitry was examined using the imaging method for awake rats. Additional details of the assay are described in Ferris et al. (2008).\nMale rats in the company of a female cage mate will piloerect in the presence of a male intruder. This piloerection is a sign of stress and aggressive intent and is associated with activation of stress/arousal circuits in the brain. […] Resident male rats from six male:female pairs were imaged while fully awake. During a single imaging session, these males were treated with vehicle or AVN251-HCl (5 mg/kg).\nThe total volume of brain activation for resident males confronted with their mate alone, mate plus intruder, and mate plus intruder in the presence of AVN251-HCl can be viewed as 3D models. While there appears to be a general decrease in BOLD signal in major regions with AVN251-HCl treatment, sexual motivation, as assessed by the presentation of a novel receptive female, was unaffected by V1a receptor blockade.\nStress circuit activation in response to an intruder male is assessed by obtaining brain scans viewed from a caudal/dorsal perspective as translucent shells. The localization of activated voxels is mapped as 3D volumes of activation, which are composed of 10 subjects each. Once fully registered and segmented, the statistical responses for each subject are averaged on a voxel-by-voxel basis. Those averaged voxels exceeding a 2.0% threshold are shown in their appropriate spatial location. Functional images are acquired on awake rats at 4.7 T.\nThe 3D volumes of activation are composed from results obtained with 10 subjects in each condition. […] Particular olfactory systems measured included the anterior olfactory nucleus, olfactory tubercle, piriform cortex, n. laterial olfactory tract, and entrorhinal cortex. Particular dopaminergic systems measured included the prelimbic cortex, accumbens, ventral pallidum, medial dorsal thalamus, and ventral tegmentum.\nAwake rats were imaged when presented with their mate+an intruder, a highly stressful stimulus."}, "[1]": {"test_system": "adult male Long Evans rats", "assay": "Light:Dark Shuttle Box", "format": "in vivo, rat", "protocol": "Anxiolytic Effect in the Light:Dark Shuttle Box. The light:dark shuttle box is a standard and well characterized assay for anxiolytic effects of a test compound. Rats naturally avoid the light side of the box because it is stressful. Increased time on the light side by the treatment group compared to control reflects an anxiolytic effect (Bourin and Hascoet, 2003). Adult male Long Evans rats were administered AVN251 (0.1-2 mg/kg) by oral gavage 90 min prior to testing in a light: dark shuttle box."}}, "note": "Entries after “also recorded” stand apart in the source; their conditions may differ.", "data": [{"smiles": "CN(Cc1cccc(C(F)(F)F)c1)C(=O)[C@@H](CC(=O)N1CCC(N2CCCCC2)CC1)N1C(=O)[C@@H](N2C(=O)OC[C@@H]2c2ccccc2)[C@H]1C=Cc1ccccc1", "note": "[Example 225, 2(R)-[[4-(Piperidinyl)piperidinyl]carbonylmethyl]-2-[3(S)-(4(S)-phenyloxazolidin-2-on-3-yl)-4(R)-(2-styryl)azetidin-2-on-1-yl]acetic acid N-methyl-N-(3-trifluoromethylbenzyl)amide]", "values": [{"measurement": "Ki", "setting": "V1b receptor", "result": "> 1000", "unit": "nM"}, {"measurement": "sexual motivation (reward circuit activation by novel receptive female)", "setting": "resident male rats; awake resident male rats, 5 mg/kg, listed as AVN251, 5 mg/kg", "result": "activates reward circuitry; also recorded: remained intact"}, {"measurement": "activation of stress/arousal circuit in response to male intruder (BOLD imaging)", "setting": "resident male rats; awake resident male rats, mate plus intruder, 5 mg/kg", "result": "blocked the stress/arousal response"}, {"measurement": "stress and aggressive motivation compared to controls", "setting": "resident male rats; oral administration, intruder stimulus", "result": "blocked stress and aggressive motivation"}, {"measurement": "anxiety vs. vehicle", "setting": "[1]; 0.1-2 mg/kg oral gavage 90 min prior to testing", "result": "dose dependent decrease in anxiety"}, {"measurement": "light-dark entries (FIG. 2C)", "setting": "[1]; 1 or 2 mg/kg oral gavage", "result": "more light-dark entries"}, {"measurement": "time in the dark (FIG. 2B)", "setting": "[1]; 1 or 2 mg/kg oral gavage", "result": "less time in the dark"}, {"measurement": "time in the light (FIG. 2A)", "setting": "[1]; 1 or 2 mg/kg oral gavage", "result": "significantly more time in the light"}]}]}
